Data published in US20230052740A1, “MODULATORS OF CIRCADIAN RHYTHMS AND USES THEREOF” (The Regents of the University of California, priority 2019, published 2023).

Molecular target: T1, 5HT2c (Homo sapiens, UniProt P28335)
T1 construct: Tango fusion elements (printed only as 'PRESTO-Tango receptor DNAs'); expressed in transfected cells; host or cells: HTLA cells
T1 sequence (P28335 33-458): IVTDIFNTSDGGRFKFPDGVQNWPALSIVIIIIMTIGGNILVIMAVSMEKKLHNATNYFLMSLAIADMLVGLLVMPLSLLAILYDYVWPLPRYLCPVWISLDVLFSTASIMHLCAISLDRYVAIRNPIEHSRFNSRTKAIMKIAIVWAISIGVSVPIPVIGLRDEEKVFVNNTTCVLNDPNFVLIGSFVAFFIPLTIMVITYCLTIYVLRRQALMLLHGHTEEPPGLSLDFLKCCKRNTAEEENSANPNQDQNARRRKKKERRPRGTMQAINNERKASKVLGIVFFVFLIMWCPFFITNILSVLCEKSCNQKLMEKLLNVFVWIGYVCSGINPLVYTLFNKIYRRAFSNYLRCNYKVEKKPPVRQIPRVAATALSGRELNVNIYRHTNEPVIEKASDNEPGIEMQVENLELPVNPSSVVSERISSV
Test: PRESTO-Tango GPCR-ome counter-screen, agonist mode
Format: cell-based
Details: arrestin recruitment Tango, in words
Description: Screening of compounds in the PRESTO-Tango GPCR-ome was accomplished as previously described (Kroeze, supra). with several modifications. First, HTLA cells were plated in DMEM with 10% FBS and 10 U/mL penicillin-streptomycin. Next, the cells were transfected using an in-plate PEI method (Longo, P. A. et al., Methods Enzymol 529, 227-240, 2013). PRESTO-Tango receptor DNAs were resuspended in OptiMEM and hybridized with PEI prior to dilution and distribution to 384-well plates and subsequent addition to cells. After overnight incubation, drugs were added to cells without replacement of the medium. The remaining steps of the PRESTO-Tango protocol were followed as previously described.

COc1ccc(Br)c(CNc2cccnc2)c1 [ZINC128734226]
off-target agonist activity on 5HT2c: did have some activity on 5HT2c
